According to PubChem BioAssay (NCI):
“And” between values parts separate entries of the source, which are not always exact repeats. Equal values may be shown once.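 Interpolation was linear, between the two tested concentrations surrounding the appropriate level; five concentrations were tested over 48 hours in 96-well plates. GI50 marks 50% less growth. TGI marks complete inhibition of growth.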

Tests used:
Experiment in all cases: NCI anticancer screen, dose series, 48 h
IGROV1 ovarian = tested on: IGROV1 ovarian
BT-549 breast = tested on: BT-549 breast
A498 renal = tested on: A498 renal
HS 578T breast = tested on: HS 578T breast
SK-OV-3 ovarian = tested on: SK-OV-3 ovarian
OVCAR-5 ovarian = tested on: OVCAR-5 ovarian
UACC-62 melanoma = tested on: UACC-62 melanoma
LOX IMVI melanoma = tested on: LOX IMVI melanoma
CAKI-1 renal = tested on: CAKI-1 renal
UO-31 renal = tested on: UO-31 renal

Structure (SMILES): C/C=C(\C)C(=O)O[C@H]1C=CC(=O)O[C@H]1CCC(=O)[C@H](C)O
- GI50 (IGROV1 ovarian): 22 µM
- TGI (IGROV1 ovarian): 46.8 µM
- GI50 (BT-549 breast): 19 µM
- TGI (BT-549 breast): 36.8 µM
- GI50 (A498 renal): 24.1 µM
- TGI (A498 renal): 56.1 µM
- GI50 (HS 578T breast): 16.2 µM
- TGI (HS 578T breast): 39 µM
- GI50 (SK-OV-3 ovarian): 36.5 µM
- TGI (SK-OV-3 ovarian): > 100 µM
- GI50 (OVCAR-5 ovarian): 22.4 µM
- TGI (OVCAR-5 ovarian): 50.8 µM
- GI50 (UACC-62 melanoma): 14.1 µM
- TGI (UACC-62 melanoma): 27.7 µM
- GI50 (LOX IMVI melanoma): 11.8 µM
- TGI (LOX IMVI melanoma): 27.4 µM
- GI50 (CAKI-1 renal): 7.16 µM
- TGI (CAKI-1 renal): 17.3 µM
- GI50 (UO-31 renal): 15.9 µM
- TGI (UO-31 renal): 31.2 µM

Structure (SMILES): COc1ccccc1/C=N\N/C(N)=N\N=C\c1ccccc1OC
- GI50 (IGROV1 ovarian): 0.923 µM
- GI50 (BT-549 breast): 0.785 µM
- TGI (BT-549 breast): 3.56 µM
- GI50 (A498 renal): 0.372 µM
- TGI (A498 renal): 19.4 µM
- GI50 (HS 578T breast): 0.447 µM
- TGI (HS 578T breast): 38.7 µM
- GI50 (SK-OV-3 ovarian): 0.484 µM
- TGI (SK-OV-3 ovarian): 7.62 µM
- GI50 (OVCAR-5 ovarian): 3.36 µM
- TGI (OVCAR-5 ovarian): > 100 µM
- GI50 (UACC-62 melanoma): 0.497 µM
- TGI (UACC-62 melanoma): > 40.7 µM
- GI50 (LOX IMVI melanoma): 2.4 µM
- TGI (LOX IMVI melanoma): > 39.5 µM
- GI50 (CAKI-1 renal): 0.207 µM
- TGI (CAKI-1 renal): 4.11 µM
- GI50 (UO-31 renal): 2.31 µM
- TGI (UO-31 renal): > 23.1 µM

Structure (SMILES): COc1cccc(CC(C)=C(c2ccc(OCCN(C)C)cc2)c2ccc(OCCN(C)C)cc2)c1
- GI50 (IGROV1 ovarian): 3.98 µM
- TGI (IGROV1 ovarian): 8.73 µM
- GI50 (BT-549 breast): 4.29 µM
- TGI (BT-549 breast): 8.88 µM
- GI50 (A498 renal): 4.79 µM
- TGI (A498 renal): 9.63 µM
- GI50 (HS 578T breast): 3.58 µM
- TGI (HS 578T breast): 8.9 µM
- GI50 (SK-OV-3 ovarian): 5.66 µM
- TGI (SK-OV-3 ovarian): 10.4 µM
- GI50 (OVCAR-5 ovarian): 3.24 µM
- TGI (OVCAR-5 ovarian): 7.35 µM
- GI50 (UACC-62 melanoma): 0.689 µM
- TGI (UACC-62 melanoma): 1.5 µM
- GI50 (LOX IMVI melanoma): 0.604 µM
- TGI (LOX IMVI melanoma): 1.16 µM
- GI50 (CAKI-1 renal): 3.96 µM
- TGI (CAKI-1 renal): 8.27 µM
- GI50 (UO-31 renal): 3.55 µM
- TGI (UO-31 renal): 7.57 µM

Structure (SMILES): CSC1=Nc2c(c(C)c(C)n2COC(CO)CO)C2=NC(=O)C(C)N12 (stereo unspecified)
- GI50 (IGROV1 ovarian): 39.6 µM
- TGI (IGROV1 ovarian): > 100 µM
- GI50 (BT-549 breast): > 100 µM
- TGI (BT-549 breast): > 100 µM
- GI50 (A498 renal): > 100 µM
- TGI (A498 renal): > 100 µM
- GI50 (HS 578T breast): > 100 µM
- TGI (HS 578T breast): > 100 µM
- GI50 (SK-OV-3 ovarian): > 100 µM
- TGI (SK-OV-3 ovarian): > 100 µM
- GI50 (OVCAR-5 ovarian): > 100 µM
- TGI (OVCAR-5 ovarian): > 100 µM
- GI50 (UACC-62 melanoma): > 100 µM
- TGI (UACC-62 melanoma): > 100 µM
- GI50 (LOX IMVI melanoma): > 100 µM
- TGI (LOX IMVI melanoma): > 100 µM
- GI50 (CAKI-1 renal): > 100 µM
- TGI (CAKI-1 renal): > 100 µM
- GI50 (UO-31 renal): > 100 µM
- TGI (UO-31 renal): > 100 µM

Structure (SMILES): COC(=O)C1c2cc3c(cc2C(OC2OC(C)C(OC)C(C)(OC)C2OC)CC1(C)O)C(=O)c1c(O)cc2c(c1C3=O)OC1OC2(C)C(O)C([N+](C)(C)[O-])C1O (stereo unspecified)
- TGI (IGROV1 ovarian): 4.22 µM
- TGI (BT-549 breast): 9.14 µM
- TGI (A498 renal): 3.7 µM
- TGI (HS 578T breast): 25.6 µM
- TGI (SK-OV-3 ovarian): > 64.1 µM
- TGI (OVCAR-5 ovarian): > 43.6 µM
- TGI (UACC-62 melanoma): 0.311 µM
- TGI (LOX IMVI melanoma): 3.38 µM
- TGI (CAKI-1 renal): > 28.3 µM
- TGI (UO-31 renal): 5.7 µM

Structure (SMILES): COc1cccc(F)c1C(=O)c1cnc(NC2CCN(S(C)(=O)=O)CC2)nc1N
- GI50 (IGROV1 ovarian): 3.9 µM
- TGI (IGROV1 ovarian): > 25 µM
- GI50 (BT-549 breast): 5.45 µM
- TGI (BT-549 breast): 16.8 µM
- GI50 (A498 renal): 3.58 µM
- TGI (A498 renal): 8.72 µM
- GI50 (HS 578T breast): 3.83 µM
- TGI (HS 578T breast): 15.9 µM
- GI50 (SK-OV-3 ovarian): 13 µM
- TGI (SK-OV-3 ovarian): > 25 µM
- GI50 (OVCAR-5 ovarian): 3.59 µM
- TGI (OVCAR-5 ovarian): > 25 µM
- GI50 (UACC-62 melanoma): 2.66 µM
- TGI (UACC-62 melanoma): 9.42 µM
- GI50 (LOX IMVI melanoma): 1.85 µM
- TGI (LOX IMVI melanoma): > 25 µM
- GI50 (CAKI-1 renal): 3.4 µM
- TGI (CAKI-1 renal): > 22.9 µM
- GI50 (UO-31 renal): 4.6 µM
- TGI (UO-31 renal): 21.9 µM

Structure (SMILES): CC1(C)N=C(N)N=C(N)N1c1ccc(CCCCc2ccc(Cl)cc2S(=O)(=O)F)c(Cl)c1
- GI50 (IGROV1 ovarian): 0.192 µM
- TGI (IGROV1 ovarian): 21 µM
- GI50 (BT-549 breast): 2.64 µM
- TGI (BT-549 breast): 24.3 µM
- GI50 (A498 renal): 3.19 µM
- TGI (A498 renal): 18.9 µM
- GI50 (HS 578T breast): 4.05 µM
- TGI (HS 578T breast): 30.9 µM
- GI50 (SK-OV-3 ovarian): 4.3 µM
- TGI (SK-OV-3 ovarian): 18.9 µM
- GI50 (OVCAR-5 ovarian): 0.666 µM
- TGI (OVCAR-5 ovarian): 22.8 µM
- GI50 (UACC-62 melanoma): 0.344 µM
- TGI (UACC-62 melanoma): 14.3 µM
- GI50 (LOX IMVI melanoma): 0.242 µM
- TGI (LOX IMVI melanoma): 13.4 µM
- GI50 (CAKI-1 renal): 2.04 µM
- TGI (CAKI-1 renal): 18.2 µM
- GI50 (UO-31 renal): 6.22 µM
- TGI (UO-31 renal): 23.6 µM

Structure (SMILES): CC(=O)OC1COC(Oc2c(C)c3c4c(c2O)[C@@H](C)CC[C@@H]4[C@@H](C)C[C@H]3C=C(C)C)C(O)C1OC(C)=O (stereo partly specified)
- GI50 (IGROV1 ovarian): 13.4 µM
- TGI (IGROV1 ovarian): 28.8 µM
- GI50 (BT-549 breast): 26.9 µM
- TGI (BT-549 breast): 69.7 µM
- GI50 (A498 renal): 23.5 µM
- TGI (A498 renal): 45.7 µM
- GI50 (HS 578T breast): 46.8 µM
- TGI (HS 578T breast): > 100 µM
- GI50 (SK-OV-3 ovarian): 20.8 µM
- TGI (SK-OV-3 ovarian): 37.1 µM
- GI50 (OVCAR-5 ovarian): 15.5 µM
- TGI (OVCAR-5 ovarian): 30.1 µM
- GI50 (UACC-62 melanoma): 15.1 µM
- TGI (UACC-62 melanoma): 28.9 µM
- GI50 (LOX IMVI melanoma): 12 µM
- TGI (LOX IMVI melanoma): 25.7 µM
- GI50 (CAKI-1 renal): 12.6 µM
- TGI (CAKI-1 renal): 26.3 µM
- GI50 (UO-31 renal): 17.3 µM
- TGI (UO-31 renal): 40.9 µM

Structure (SMILES): N#Cc1c(N)nc(N2CCOCC2)c(C#N)c1-c1ccncc1
- GI50 (IGROV1 ovarian): 12.3 µM
- TGI (IGROV1 ovarian): 39.5 µM
- GI50 (BT-549 breast): 95.8 µM
- TGI (BT-549 breast): > 100 µM
- GI50 (A498 renal): 18.6 µM
- TGI (A498 renal): 66.1 µM
- GI50 (HS 578T breast): 38.3 µM
- TGI (HS 578T breast): > 100 µM
- GI50 (SK-OV-3 ovarian): 37 µM
- TGI (SK-OV-3 ovarian): > 100 µM
- GI50 (OVCAR-5 ovarian): 27 µM
- TGI (OVCAR-5 ovarian): > 100 µM
- GI50 (UACC-62 melanoma): 27 µM
- TGI (UACC-62 melanoma): > 100 µM
- GI50 (LOX IMVI melanoma): 80.1 µM
- TGI (LOX IMVI melanoma): > 100 µM
- GI50 (CAKI-1 renal): 49.1 µM
- TGI (CAKI-1 renal): > 100 µM
- GI50 (UO-31 renal): 31.3 µM
- TGI (UO-31 renal): > 100 µM

Structure (SMILES): COC(=O)C[C@](O)(CCCC(C)(C)O)C(=O)O[C@@H]1C(OC)=C[C@]23CCCN2CCc2cc4c(cc2[C@H]13)OCO4
- GI50 (IGROV1 ovarian): 0.0284 µM
- TGI (IGROV1 ovarian): 1.4 µM and 0.795 µM
- GI50 (BT-549 breast): 0.0288 µM
- GI50 (A498 renal): 0.0173 µM
- TGI (A498 renal): 0.146 µM and 0.0396 µM
- GI50 (HS 578T breast): 0.0333 µM
- GI50 (SK-OV-3 ovarian): 0.0284 µM
- TGI (SK-OV-3 ovarian): 1.82 µM and 0.395 µM
- GI50 (OVCAR-5 ovarian): 0.0489 µM
- TGI (OVCAR-5 ovarian): 2.93 µM and 0.556 µM
- GI50 (UACC-62 melanoma): 0.03 µM
- TGI (UACC-62 melanoma): 0.712 µM and 0.137 µM
- GI50 (LOX IMVI melanoma): 0.0129 µM
- GI50 (CAKI-1 renal): 0.252 µM
- TGI (CAKI-1 renal): 1.61 µM and 1.2 µM
- GI50 (UO-31 renal): 0.181 µM
- TGI (UO-31 renal): 2.01 µM and 3.13 µM

Structure (SMILES): O=C(O)c1nnsc1-c1ccc(-c2snnc2C(=O)O)cc1
- TGI (IGROV1 ovarian): > 100 µM
- TGI (BT-549 breast): > 100 µM
- TGI (A498 renal): > 100 µM
- TGI (HS 578T breast): > 100 µM
- TGI (SK-OV-3 ovarian): > 100 µM
- TGI (OVCAR-5 ovarian): > 100 µM
- TGI (UACC-62 melanoma): > 100 µM
- TGI (LOX IMVI melanoma): > 100 µM
- TGI (CAKI-1 renal): > 100 µM
- TGI (UO-31 renal): > 100 µM
